Test results: patent publication US7709454B2, “Methods and compositions for inhibiting tumorigenesis” (New York University, priority 1997, dated 2010)

What was measured:
[1] = system: Various human tumor cell lines; details: cited from earlier work
Me-3, SK-Mel2 and WM-115 = assay: BrdU incorporation after MEK1 or AKT inhibitors (Example 2); format: cell-based, human; details: 48 h
Experimental: (§1) WM-115, SK-MEL-2 and COS7 cell lines (ATCC) were grown according to the specifications of the provider. The primary Me-3 melanoma (Stecca, B. et al. Melanocyte proliferation and melanoma growth, recurrence and metastasis require sustained SONIC HEDGEHOG-GLI signaling. Submitted. (2006)) was grown in E-MEM with 10% FBS (Hyclone), 1 mM sodium pyruvate (GIBCO) and 1 ng/ml EGF (GIBCO). Proliferating human melanocytes from foreskin (Promocell) were grown in M2 media (Promocell). Melanomas from ±6 month-old Tyr→NRAS^Q61K; Ink4a^−/− mice on a light coat color Dct^−/− background^13 were collected from the skin and lymph nodes. Tumors were dissociated and grown in E-MEM with 10% FBS, 1 mM sodium pyruvate (GIBCO) and 1 ng/ml EGF (GIBCO). Mouse embryonic fibroblasts (MEFs) were prepared from E14.5 Swiss Webster mouse embryos and grown in DMEM with 10% FBS.
(§2) Forskolin (FK) and 1,9-dideoxyforskolin (ddFK; Sigma) were used at 50 μM. MEK-1 (U0126; Promega), and AKT (SH6; Alexis corporation) inhibitors were used at 1 and 40 μM, respectively, dissolved in DMSO. U0126 and SH6 were used for 1 h, 48 h post-transfection. Leptomycin B (LMB; Sigma) was used at 5 nM for 6 h, 48 h post-transfection. BrdU (Sigma) was pulsed at 4 μg/ml for 2 h before fixation followed by immunodetection with anti-BrdU antibodies (BD Biosciences). The number of viable cells was assessed by Trypan blue exclusion (Promega). […]

GLI1, GLI3, GLI3R = assay: localization of transfected GLI proteins in SK-Mel2 cells; format: cell-based, human
Experimental: (§3) Forskolin (FK) and 1,9-dideoxyforskolin (ddFK; Sigma) were used at 50 μM. MEK-1 (U0126; Promega), and AKT (SH6; Alexis corporation) inhibitors were used at 1 and 40 μM, respectively, dissolved in DMSO. U0126 and SH6 were used for 1 h, 48 h post-transfection. Leptomycin B (LMB; Sigma) was used at 5 nM for 6 h, 48 h post-transfection. BrdU (Sigma) was pulsed at 4 μg/ml for 2 h before fixation followed by immunodetection with anti-BrdU antibodies (BD Biosciences). The number of viable cells was assessed by Trypan blue exclusion (Promega). […] (SEQ ID NO: 57) (target-validated from Ambion). […] SEQ ID NO: 58) (Sanchez, P. et al. Inhibition of prostate cancer proliferation by interference with SONIC HEDGEHOG-GLI1 signaling. Proc. Natl. Acad. Sci. USA. 101, 12561-12566 (2004)). siRNA transfections (0.2 μM) were performed with Oligofectamine (Invitrogen) for 48 h.
(§4) Cells were transfected (3 μg/p35 plate) with myc-tagged full-length CMV expression vectors with FUGENE (Roche). Transfections were at equimolar amounts unless otherwise specified with combinations of pCS2-Myc-tagged human GLI1, GLI3, GLI3R (GLI3C′ΔClaI), frog Gli2R (Gli2C′) (Ruiz i Altaba, A. Gli proteins encode context-dependent positive and negative functions: implications for development and disease. Development 126, 3205-3216 (1999), pCMV-HA-tagged GLI1 (ref. 20), HRAS^V12G (from A. Pellicer), NRAS^Q61K (Ackermann, J. et al. Metastasizing melanoma formation caused by expression of activated N-RasQ61K on an INK4a-deficient background. Cancer Res. 65, 4005-4011 (2005)), activated (myristoylated) myc-tagged AKT1 (Upstate), activated MEK1 (p45MAPKK^S222D; from J. Pouyssegur), Myc-tagged SUFUH (Kogerman, P. et al. Mammalian suppressor-of-fused modulates nuclear-cytoplasmic shuttling of Gli-1. Nat Cell Biol. 1, 312-319 (1999)), and pCMV-eGFP or pCMV-lacZ.

[2] = system: GLI1, PTCH1, BMI1, FOXM1, MITFM expression; assay: qPCR gene expression in melanoma cultures; format: cell-based, human
Experimental: Real-time quantitative PCR amplifications with different primers (Suppl. Materials) were carried out at 60° C. on an Opticon machine (MJ Research) using iQ™ SYBR Green supermix (Biorad) and values calculated using the standard curve method.
(§5) Commercial N-SHH (R&D Systems) was used at 100 nM. 5E1 anti-SHH blocking antibody (Hybridoma Bank, University of Iowa) was used at 10 μg/ml. Forskolin (FK) and 1,9-dideoxyforskolin (ddFK; Sigma) were used at 50 μM. […] MEK-1 (U0126; Promega), EGFR (AG1478; Biosource) and AKT (SH6; Alexis corporation) inhibitors were used at 1, 10, and 40 μM, respectively, dissolved in DMSO. Drug treatments were for 48 h in 2.5% serum. BrdU (Sigma) was pulsed at 4 μg/ml for 2 h before fixation followed by immunodetection with anti-BrdU antibodies (BD Biosciences). The number of viable cells was assessed by Trypan blue exclusion (Promega).

all forms of MEK = details: cited from earlier work
[3] = system: frog GLI1, frog Gli2, human GLI3 proteins; assay: localization of Myc-tagged GLI proteins in transfected COS7 cells; format: cell-based
Experimental: (§6) Cells were transfected (3 μg/p35 plate) with myc-tagged full-length CMV expression vectors for human GLI1 (Lee, J., Platt, K. A., Censullo, P. & Ruiz i Altaba, A. Gli1 is a target of Sonic hedgehog that induces ventral neural tube development. Development 124, 2537-2552 (1997)), HRAS-V12 (kindly provided by Dr. A. Pellicer, NYU) and LacZ with FUGENE (Roche). For selection, SK-MEL-2 and MeWo cells were transfected (4 μg/p60 plate) with PGK-neo and CMV-eGFP alone or in a 1/1/8 ratio with HRAS-12G, GLI3C′ΔClaI (Ruiz i Altaba 1999) or (frog) fGli2C′Δ (Ruiz i Altaba 1999), or in a 1/1/4/4 ratio with HRAS-12G/GLI3C′ΔClaI or HRAS-12G/fGli2C′Δ. After Geneticin (400 μg/ml, Gibco) selection for 20 days, colonies were stained with 0.5% crystal violet. Colony size was measured in duplicate dishes in three independent experiments. For subcellular localization, pCS2-Myc frog Gli2, […], human GLI3 and human GLI3C′ΔCla1 (Ruiz i Altaba, 1999) were transfected into COS-7 (ATCC) cells with our without HRAS (V12).

[4] = system: human melanoma primary cultures and cell lines; assay: BrdU incorporation in melanoma primary cultures and cell lines; format: cell-based
Experimental: (§7) Human foreskin melanocytes (Promocell) were grown in serum-free M2 medium (Promocell). WM-115, SK-MEL-2, SK-MEL-5, MeWo and COS7 cell lines (ATCC) were grown as specified. Tumors were chopped, incubated in E-MEM (Sigma) containing collagenase A (300 U/ml, Worthington) and hyaluronidase (100 U/ml, Sigma), mechanically dissociated and plated in E-MEM with 10% FBS, 1 mM sodium pyruvate (GIBCO) and 1 ng/ml EGF (GIBCO). […] All melanoma samples and BCC were obtained following approved protocols.
as §5

SK-Mel2 cells = assay: Propidium iodide FACS analyses; format: cell-based, human; details: 24 h, compared to DMSO-treated cells
GLI1 and PTCH1 mRNA = assay: qPCR of GLI1 and PTCH1 mRNA after MEK-1 or AKT inhibitors; format: cell-based, human; details: 4 h after treatment
Experimental: Real-time quantitative PCR amplifications with different primers were carried out at 60° C. on an Opticon machine (MJ Research) using iQTM SYBR Green supermix (Biorad) and values calculated using the standard curve method. Human primer sequences were 5'→3': […] NO: 5) and […] NO: 6); […] NO: 11) and […] NO: 41) and NRAS-R: […] NO: 44); […] NO: 33) and […] NO: 34). For mice: […] NO: 45) and […] NO: 46); Sufu-[…] NO: 47) and Sufu-[…] NO: 48); […] NO: 49) and […] NO: 50); Tyrosinase-[…] NO: 51) and Tyrosinase-[…] NO: 53) and […] NO: 54); […] NO: 55) and […] NO: 56). […] Promega), and AKT (SH6; […] […] Control siRNA: […] […] Proc. Natl. Acad. Sci. USA.

[5] = system: GLI1-transfected WM-115, SK-MEL-2 and SK-MEL-5; assay: GLI1-transfection enhanced BrdU incorporation, treatment with inhibitors; format: cell-based, human; details: 48 h treatment
Experimental: as §5

[6] = system: Human GLI3Rep (GLI3C′ΔCla1); assay: localization of myc-tagged GLI proteins in transfected COS-7 cells; format: cell-based; details: GLI3Rep+RAS*+inhibitor, 1 hr
Experimental: as §6

Frog Gli2 = assay: as above; format: cell-based; details: Gli2+RAS*+inhibitor, 1 hr
Experimental: as §6

GLI1 = assay: localization of transfected GLI1 in COS7 cells (Example 2); format: cell-based, monkey; details: inhibitors for 1 h
Experimental: as §3
Cells were transfected (3 μg/p35 plate) with myc-tagged full-length CMV expression vectors with FUGENE (Roche). […]

[7] = system: Proliferating melanocytes from human foreskin; assay: BrdU incorporation in proliferating melanocytes; format: cell-based; details: cyclopamine treatment
Experimental: as §7, §5

[8] = system: NRAS^Q61K mouse melanoma primary cultures; assay: BrdU incorporation in primary cultures of Tyr-NRAS^Q61K; Ink4a−/− mouse melanomas; format: cell-based; details: two primary cultures (1-PM2, 1-LNM5), 10 μM, GFP plus control plasmid
Experimental: as §1, §2

p-ERK, p-AKT = assay: levels of p-ERK or p-AKT in melanoma cells; format: cell-based, human; details: cyclopamine treatment
WM115 cells = assay: BrdU incorporation, MEK inhibitor plus cyclopamine; format: cell-based, human; details: 5 μM cyclopamine plus 1 μM U0126, 48 hours
Experimental: (§8) Cell proliferation was assessed after incubation with BrdU as described.

MeWo/LacZ melanomas = assay: subcutaneous MeWo/LacZ melanoma xenografts in nude mice; format: in vivo, mouse
Experimental: (§9) 5×10^5 MeWo/LacZ, WM-115 or 10^6 primary Me-3 melanoma cells were inoculated subcutaneously (s.c.) at two sides per adult male (NMRI-nu) nude mouse and the tumors were measured daily. […] For metastasis studies, 1×10^6 Mewo/LacZ cells were injected into the tail vein (i.v.) of adult male nude mice. […] At the end of the treatment the lungs were dissected and stained with XGal.

[9] = system: WM-115 subcutaneous tumors; assay: subcutaneous WM-115 melanoma xenografts in nude mice; format: in vivo, mouse; details: n=2 treated vs n=2 carrier
Experimental: as §9

WM-115, Me-3 and MeWo = assay: long-term cyclopamine treatment and recovery of cultures; format: cell-based, human; details: ten days, drug-containing media anew every 2 days
[10] = system: WM115, SK-MEL-2, SK-MEL-5 and MeWo cell lines; assay: BrdU incorporation in melanoma cell lines; format: cell-based, human; details: cells from systemically treated tumors
Experimental: as §7, §5

Mewo cells = assay: BrdU incorporation, AKT inhibitor plus cyclopamine; format: cell-based, human; details: 5 μM cyclopamine plus 20 μM SH6, 48 hours
Experimental: as §8

[11] = system: HRAS^V12G or NRAS^Q61K transfected WM-115 and SK-Mel2 cells; assay: oncogenic RAS-transfection enhanced BrdU incorporation (Example 2); format: cell-based, human; details: WM-115 and SK-Mel2
Experimental: as §3, §4

O=C(Cc1ccncc1)N1CCC(=C2c3ccc(Cl)cc3CCc3cccnc32)CC1 [SCH44342]
IC50 [1]: 1000 nM

N#CC(=C(N)Sc1ccccc1N)C(C#N)=C(N)Sc1ccccc1N [U0126, 1,4-diamino-2,3-dicyano-1,4-bis[2-aminophenylthio]butadiene]
BrdU incorporation (Me-3, SK-Mel2 and WM-115): decreased BrdU incorporation | localization of the constitutively nuclear GLI3R (GLI1, GLI3, GLI3R): no effect | localization of GLI1 (GLI1, GLI3, GLI3R; inhibitors for 1 h): increasing cytoplasmic localization of GLI1 | localization of GLI3 (GLI1, GLI3, GLI3R; inhibitors for 1 h): unaffected | GLI1 and PTCH1 levels ([2]; 4 h after inhibitor, all cultures): reduction of GLI1 and PTCH1 levels | higher affinity than PD 098059 (all forms of MEK): 44- to 357 fold | localization of transfected GLI proteins without co-transfected RAS [3]: did not change the localization | effect on RAS-enhanced nuclear accumulation of GLI proteins ([3]; treatment for 1 h, 24 h after transfection): reversed | BrdU incorporation ([4]; 48 h, all four melanoma cell lines tested and Me-3): decreased BrdU incorporation | decrease in the number of dividing cells (S/G2/M) (SK-Mel2 cells): 30% | GLI1 and PTCH1 mRNA levels (GLI1 and PTCH1 mRNA): rapid reduction of GLI1 and PTCH1 mRNA levels | effect on GLI1-enhanced proliferation [5]: reversed | cells with cytoplasmic (c) localization [6]: 1% | cells with cytoplasmic (c) localization (Frog Gli2): 30% | effect on oncogenic RAS-induced nuclear accumulation of GLI1 (GLI1): reversed

CC1=C2C[C@H]3[C@@H](CC=C4C[C@@H](O)CC[C@@]43C)[C@@H]2CC[C@]12O[C@@H]1C[C@H](C)CN[C@H]1[C@H]2C [cyclopamine]
induction of the senescence marker SA-β-gal [7]: did not induce | number of doubly BrdU+/GFP+ cells [8]: decreased the number of doubly BrdU+/GFP+ cells | GLI1 expression ([2]; 24-48 h cyclopamine treatment): decreased GLI1 expression | PTCH1 expression ([2]; cyclopamine 8 h, 3 primary cultures tested): inhibited PTCH1 expression | Expression of BMI1, FOXM1 and MITFM ([2]; cyclopamine 8 h, primary cultures): repressed | levels of p-ERK or p-AKT (p-ERK, p-AKT): did not alter | effect on BrdU incorporation of suboptimal cyclopamine combined with U0126 (WM115 cells): significantly effective | response of BrdU incorporation to cyclopamine ([4]; 24-48 h, dose-dependent, compared with tomatidine): all responded | recurrence after sustained treatment (MeWo/LacZ melanomas; 20 d treatment after tumor disappearance, 42 additional days): no recurrences | tumor response to injection into the tumor (MeWo/LacZ melanomas; cyclodextrin-complexed cyclopamine injected into the tumor, tumors ±10 mm^3 or ±65 mm^3, vs cyclodextrin alone): rapid regression and disappearance of the tumors | cured tumors containing small pockets of β-gal+ tumor cells or groups of single cells (MeWo/LacZ melanomas; five cured tumors taken 1-2 days after macroscopic disappearance): ⅘ | time to tumor reappearance (MeWo/LacZ melanomas; from the end of 3 d and 10 d additional treatment after tumor disappearance): 2 to 7 days | decrease in tumor volume (MeWo/LacZ melanomas; systemic treatment of large subcutaneous tumors (±65 mm^3), 16 days, vs carrier-only): 33% | tumor response to cyclopamine treatment [9]: lead to their disappearance | BrdU incorporation after long-term treatment (WM-115, Me-3 and MeWo): inhibit all BrdU incorporation | sensitivity of tumor-derived MeWo/lacZ cells to cyclopamine in vitro versus parental cells [10]: same sensitivity | effect on BrdU incorporation of suboptimal cyclopamine combined with SH6 (Mewo cells): significantly effective | inhibition of oncogenic RAS-enhanced BrdU incorporation [11]: 65-75%
